In assay [1] the test system is carrageenan-induced paw edema in BALB/c mice. Nature of the assay: Carrageenan-induced paw edema. The assay is classed as in vivo. The following applies: 50 mg/kg dose; separate experiment (data not shown). The procedure:
FIG. 1 is a graph showing the anti-inflammatory activity of Compounds 1-6 administered to mice intraperitoneally (i.p.) at 20 mg/kg, 1 hour before induction of paw edema (10-12 mice per group). The swelling of paws was measured 4 hours after induction, compared to controls and expressed as difference in paw thickness in mm (y-axis). The results were statistically evaluated by Student's t-test and statistical significance is indicated by one, two or three stars ([…]).
Acute edema was induced in the […] of BALB/c mice (10-12 mice/group) by injecting 0.02 ml of freshly prepared solution of 2% carrageenan (Sigma) under the plantar region of right hind paw (Tones et al., 2000). Carrageenan was injected 60 min after administration of the test compounds. The right paw received 0.02 ml of saline, which served as a control. The paw thickness was measured at 2, 4 and 24 hours after carrageenan challenge using a Mitutoyo engineer's micrometer. The difference between right and left pad was expressed as mean±SEM. Test compounds were injected intraperitoneally (i.p.) (20 mg/kg) in 0.5% Tween 80 in saline and vehicle control group received 0.5% Tween 80 in saline.
Compound 1 reduced paw edema by 33% and the reduction was statistically significant as determined by Student's t-test with […].

Assay [2] deals with T1, VEGF binding to heparin (HS-GAG) (Homo sapiens, UniProt P15692).
T1 construct: purchased Research and Development Systems
T1 sequence (P15692 27-191 isoform P15692-4): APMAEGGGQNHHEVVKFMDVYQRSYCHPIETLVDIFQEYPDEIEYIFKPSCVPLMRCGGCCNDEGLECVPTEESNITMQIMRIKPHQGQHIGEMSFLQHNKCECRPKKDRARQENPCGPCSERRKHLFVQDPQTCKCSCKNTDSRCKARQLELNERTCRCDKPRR
Put plainly: In vitro VEGF to HS-GAG binding assay (ELISA, heparin-BSA coated plate). An excerpt: An in vitro assay was used to assess the ability of test compounds of general formulas I and II to inhibit the interaction of VEGF with HS-GAGs. The assay was designed to for determine the concentration required for 50% inhibition (IC-50) for each specific compound. The test compounds were purchased from Life Chemicals Ltd. (Kiev, Ukraine), and the GAG used was heparin (heparin grade I-A; Sigma) conjugated to bovine serum albumin (Sigma) and diluted 1:200 in phosphate-buffered saline (PBS; pH 7.3). The heparin was added to a 96-well polystyrene ELISA plate (NUNC; 0.1 ml per well) and incubated overnight at 4° C. Following the incubation, the plate was washed thoroughly, by immersion, with de-ionized water and then with PBS (pH 7.3) containing Tween 20 (Sigma, 0.05%). The ELISA plate was then blocked with BSA (ICN, 3%, 200 μl per well) for 1 hour at room temperature. Following blocking, the plate was washed with de-ionized water, and then twice with PBS (pH 7.3) containing Tween 20. Recombinant human VEGF (Research and Development Systems) dissolved in PBS supplemented with BSA (0.1%) was added to the ELISA plate. The test compounds were dissolved in DMSO (MERCK), diluted in PBS and added to the wells at concentrations ranging from 0.01 to 200 μM to obtain a final volume 100 μl per well, and incubated for 60 minutes at room temperature with shaking. Following incubation, the plate was washed with de-ionized water and PBS (pH 7.3) containing Tween 20. Anti-human VEGF (1:2000; Research and Development Systems) diluted in PBS supplemented with BSA (1%) was added to the ELISA plate (100 per well) and incubated for 60 minutes at room temperature with shaking. Following incubation, the plate was washed with de-ionized water and then with PBS (pH 7.3) containing Tween 20. Streptavidin-HRP (1:200; Research and Development Systems Cat. No. DY998) diluted in PBS supplemented with BSA (1%) was added to the ELISA plate (100 per well) and incubated for 20 minutes at room temperature with shaking. The plate was then washed with de-ionized water and twice with PBS (pH 7.3) containing Tween 20. The peroxidase substrate chromogen tetramethyl benzidine (TMB; Dako) was added (100 μl per well) to the ELISA plate and incubated at room temperature. After 15 minutes, ELISA Stop Solution (hydrochloric acid 1N, sulfuric acid 3N) was added (100 μl per well) to stop the peroxidase catalyzed colorimetric reaction. The Optical Density (OD) of the samples was measured at 450 nm using an ELISA plate reader (Dynatech MR5000). Data were analyzed with Graphpad Prism software and IC-50 values were determined.
Percent inhibition at 30 μM concentration is shown and for selected compounds IC-50 was established.

The test system of assay [3] is oxazolone-induced ear swelling in BALB/c mice. Nature of the assay: Delayed-type hypersensitivity (DTH), oxazolone mouse ear-swelling test. In kind it is in vivo. The note with it: per os 50 mg/kg, 1 hour prior to challenge; after 48 hours. How it is done: FIG. 2 is a graph showing the anti-inflammatory activity of Compounds 1, 2, 4, 5, 6 administered to mice orally at 50 mg/kg in a model of delayed-type hypersensitivity (DTH) (11-13 mice per group). The results for dexamethasone (10 mg/kg i.p.), a steroid positive control, are also shown. The y-axis represents difference in ear thickness in mm compared to control. The results were statistically evaluated by Student's t-test and statistical significance is indicated by one, two or three stars ([…]).
BALB/c mice (Velaz, Prague, Czech Republic; 8 week-old; 10-15 animals per group) were sensitized by topical application of a 2% oxazolone (4-ethoxymethylene-2-phenyl-2-oxazolin-5-one; Sigma, St Louis, Mo.) solution in acetone/olive oil (4:1 vol/vol) to a shaved abdomen area (50 μl) and to each paw (5 μl)(Lange-Asschenfeldt et al., 2002). Topical oxazolone administration induces immunomodulatory activity. Five days after sensitization, right ears were challenged by topical application of 10 μl of a 1% oxazolone solution, whereas left ears were treated with vehicle alone. Test compounds were administered 1 hour prior to challenge. The extent of inflammation was measured 24 hours and 48 hours after challenge, using the mouse ear-swelling test. Animals were numbered (tail marking) and weighed and the thickness of both ears was recorded with a constant-loading dial micrometer (Mitutoyo, Tokyo). The unpaired Student t-test was used for statistical analyses. Test compounds were administered per os at 50 mg/kg as a suspension with 0.5% methylcellulose. The vehicle control group received the same volume of 0.5% methylcellulose.

The record followed here is patent US20100298370A1, “BENZOTHIAZOLYL THIENOPYRIDINE DERIVATIVES AND USES THEREOF” (priority 2006, published 2010).

For the molecule `CN1CCc2c(sc(NC(=O)c3cccs3)c2-c2nc3ccccc3s2)C1` [Compound 7, N-[3-(2-benzothiazolyl)-4,5,6,7-tetrahydro-6-methylthieno[2,3-c]pyridin-2-yl]-2-thiophenecarboxamide], the “reduction of paw edema” value in assay [1] was 18.5%. Moreover, in assay [2], the IC50 turned out to be 1700 nM. At 30 µM the inhibition in assay [2] (30 μM) was 70%. Besides, in assay [3], the “reduction of ear swelling” value is on record as 32.7%.
